Test results: patent US20220226299A1 (NIPPON CHEMIPHAR CO., LTD., priority 2019, published 2022)

Target: T1, human Cav3.2 channels (Homo sapiens, UniProt O95180)
T1 construct: human Cav3.2 channel ORF (Open Reading Frame) gene; expressed in transfected cells; host or cells: HEK293 cells (ATCC No. CRL-1573), pcDNA3.1(+) plasmid
Experiment: T-type calcium blocking action: intracellular calcium (Fluo-4 AM fluorescence) in HEK293 cells steadily expressing human Cav3.2 channels
Format: cell-based
Conditions: HEK293 cells expressing human Cav3.2; KCl-stimulated calcium influx, Fluo-4 fluorescence; Tables 1 to 3
In short: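 Fluo-4 AM-loaded stable HEK293 cells were preincubated 15 min at RT with compound (0.1% DMSO final) in choline-based buffer (pH 7.3). Gramicidin was added, then KCl-induced calcium influx was read at 485/510 nm for 10 s. Percent block came from peak rise over baseline, and IC50 from log-concentration plots.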

T1 sequence (O95180 whole entry): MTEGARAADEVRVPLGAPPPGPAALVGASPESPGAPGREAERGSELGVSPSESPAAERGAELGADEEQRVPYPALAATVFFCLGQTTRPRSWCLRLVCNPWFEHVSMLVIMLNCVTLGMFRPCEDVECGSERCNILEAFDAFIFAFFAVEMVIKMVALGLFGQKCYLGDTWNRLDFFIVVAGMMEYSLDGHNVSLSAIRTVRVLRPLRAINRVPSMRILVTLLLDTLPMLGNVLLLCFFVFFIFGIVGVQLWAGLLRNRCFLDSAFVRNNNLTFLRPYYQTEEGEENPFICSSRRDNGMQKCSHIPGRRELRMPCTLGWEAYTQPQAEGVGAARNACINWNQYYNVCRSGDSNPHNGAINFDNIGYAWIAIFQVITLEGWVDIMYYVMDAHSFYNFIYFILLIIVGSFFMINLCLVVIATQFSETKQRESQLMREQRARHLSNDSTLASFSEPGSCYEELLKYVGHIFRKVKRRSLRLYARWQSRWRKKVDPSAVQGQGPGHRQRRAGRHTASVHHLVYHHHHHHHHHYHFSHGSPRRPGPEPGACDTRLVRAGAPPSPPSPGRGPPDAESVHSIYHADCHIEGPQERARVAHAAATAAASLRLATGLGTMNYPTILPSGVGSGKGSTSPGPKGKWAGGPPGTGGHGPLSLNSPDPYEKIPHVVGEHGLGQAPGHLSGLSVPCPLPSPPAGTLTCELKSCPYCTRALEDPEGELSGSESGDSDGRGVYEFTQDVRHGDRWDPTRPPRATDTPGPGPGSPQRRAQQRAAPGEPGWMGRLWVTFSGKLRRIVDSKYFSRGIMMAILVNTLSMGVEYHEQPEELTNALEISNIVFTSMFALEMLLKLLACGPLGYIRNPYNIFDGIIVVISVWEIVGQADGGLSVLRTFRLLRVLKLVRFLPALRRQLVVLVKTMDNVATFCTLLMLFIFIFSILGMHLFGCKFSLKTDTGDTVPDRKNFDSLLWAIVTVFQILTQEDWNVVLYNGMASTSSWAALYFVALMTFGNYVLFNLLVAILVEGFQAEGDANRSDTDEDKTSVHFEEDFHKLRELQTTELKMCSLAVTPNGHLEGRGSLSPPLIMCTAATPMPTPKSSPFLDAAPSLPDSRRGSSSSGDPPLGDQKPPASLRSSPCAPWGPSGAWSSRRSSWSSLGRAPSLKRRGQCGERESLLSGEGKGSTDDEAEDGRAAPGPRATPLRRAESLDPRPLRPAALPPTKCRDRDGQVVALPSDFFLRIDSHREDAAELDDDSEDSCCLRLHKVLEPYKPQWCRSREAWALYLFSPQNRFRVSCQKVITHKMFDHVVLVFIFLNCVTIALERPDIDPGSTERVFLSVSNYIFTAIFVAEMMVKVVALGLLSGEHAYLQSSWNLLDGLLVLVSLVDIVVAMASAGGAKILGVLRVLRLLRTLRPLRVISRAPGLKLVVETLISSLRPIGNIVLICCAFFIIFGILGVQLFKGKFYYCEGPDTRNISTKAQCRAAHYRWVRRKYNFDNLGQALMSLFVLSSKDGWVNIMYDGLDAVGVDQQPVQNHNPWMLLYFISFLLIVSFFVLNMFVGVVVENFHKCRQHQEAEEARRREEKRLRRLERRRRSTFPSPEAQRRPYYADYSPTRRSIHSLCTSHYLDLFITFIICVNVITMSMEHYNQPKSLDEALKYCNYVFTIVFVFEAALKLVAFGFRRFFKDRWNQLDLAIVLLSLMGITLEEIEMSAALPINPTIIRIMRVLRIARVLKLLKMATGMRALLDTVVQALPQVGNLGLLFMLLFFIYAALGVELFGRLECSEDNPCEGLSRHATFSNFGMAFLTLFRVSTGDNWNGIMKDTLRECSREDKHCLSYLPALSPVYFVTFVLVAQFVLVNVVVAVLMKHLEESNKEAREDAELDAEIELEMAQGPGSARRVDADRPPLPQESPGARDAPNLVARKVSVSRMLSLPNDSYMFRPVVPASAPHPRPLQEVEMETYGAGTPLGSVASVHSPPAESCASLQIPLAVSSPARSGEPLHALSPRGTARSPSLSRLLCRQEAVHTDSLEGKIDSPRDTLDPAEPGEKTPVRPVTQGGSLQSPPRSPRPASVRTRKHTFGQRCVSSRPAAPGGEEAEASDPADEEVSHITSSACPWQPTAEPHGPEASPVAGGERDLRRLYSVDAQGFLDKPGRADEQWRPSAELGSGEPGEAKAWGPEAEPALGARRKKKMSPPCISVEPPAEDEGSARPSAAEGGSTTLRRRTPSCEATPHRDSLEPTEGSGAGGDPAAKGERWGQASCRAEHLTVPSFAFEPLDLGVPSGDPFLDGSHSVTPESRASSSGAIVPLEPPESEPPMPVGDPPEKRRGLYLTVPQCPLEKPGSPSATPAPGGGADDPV

Compound	IC50
O=C(N[C@@H]1CCN(c2cncc(C(F)(F)F)c2)C1)[C@H]1C[C@@H]1c1nc2ccccc2o1 [Example 39, (1S,2S)-2-(benzo[d]oxazol-2-yl)-N—((R)-1-(5-(trifluoromethyl)pyridin-3-yl)pyrrolidin-3-yl)cyclopropane-1-carboxyamide]	22 nM
O=C(Cc1ccc(N2CCOCC2)cc1)N[C@@H]1CCN(c2nc(C(F)(F)F)cs2)C1 [Example 40, (R)-2-(4-morpholinophenyl)-N-(1-(4-(trifluoromethyl)thiazol-2-yl)pyrrolidin-3-yl)acetamide]	300 nM
O=C(N[C@@H]1CCN(c2cncc(C(F)(F)F)c2)C1)C1(c2ccc(Cl)cc2)CC1 [Example 24, (R)-1-(4-chlorophenyl)-N-(1-(5-(trifluoromethyl)pyridin-3-yl)pyrrolidin-3-yl)cyclopropane-1-carboxyamide]	720 nM
NC(=O)C1(NC(=O)Cc2ccc(C3CC3)cc2)CCN(c2cncc(C(F)(F)F)c2)C1 (stereo not shown) [Example 21, 3-(2-(4-cyclopropylphenyl)acetamido)-1-(5-(trifluoromethyl)pyridin-3-yl)pyrrolidine-3-carboxyamide]	1200 nM
O=C(Cc1ccc(C2CC2)cc1)NC1CN(c2ccc(F)c(C(F)(F)F)c2)C1 [Example 170, 2-(4-cyclopropylphenyl)-N-(1-(4-fluoro-3-(trifluoromethyl)phenyl)azetidin-3-yl)acetamide]	880 nM
O=C(Cc1ccc(N2CCOCC2)cc1)N[C@@H]1CCN(c2cncc(C(F)(F)F)c2)C1 [Example 181, (R)-2-(4-morpholinophenyl)-N-(1-(5-(trifluoromethyl)pyridin-3-yl)pyrrolidin-3-yl)acetamide]	25 nM
O=C(N[C@@H]1CCN(c2cncc(C(F)(F)F)c2)C1)C1CC1c1ccc(Cl)cc1 (single isomer, unassigned) [Example 108A]	5.7 nM
Cn1nnc2cc(CC(=O)N[C@@H]3CCN(c4cncc(C(F)(F)F)c4)C3)ccc21 [Example 167, (R)-2-(1-methyl-1H-benzo[d][1,2,3]triazol-5-yl)-N-(1-(5-(trifluoromethyl)pyridin-3-yl)pyrrolidin-3-yl)acetamide]	160 nM
O=C(Cc1ccc(C2CC2)cc1)N[C@H]1CN(c2cncc(C(F)(F)F)c2)C[C@@H]1O [Example 5, 2-(4-cyclopropylphenyl)-N-((3S,4S)-4-hydroxy-1-(5-(trifluoromethyl)pyridin-3-yl)pyrrolidin-3-yl)acetamide]	290 nM
O=C(N[C@@H]1CCN(c2cncc(C(F)(F)F)c2)C1)[C@H]1C[C@@H]1c1nc2ccccc2[nH]1 [Example 71, (1S,2S)-2-(1H-benzo[d]imidazol-2-yl)-N—((R)-1-(5-(trifluoromethyl)pyridin-3-yl)pyrrolidin-3-yl)cyclopropane-1-carboxyamide]	7.9 nM
O=C(N[C@@H]1CCN(c2nc3ccc(F)cc3s2)C1)[C@H]1C[C@@H]1c1nc2ccccc2[nH]1 [Example 72, (1S,2S)-2-(1H-benzo[d]imidazol-2-yl)-N—((R)-1-(6-fluorobenzo[d]thiazol-2-yl)pyrrolidin-3-yl)cyclopropane-1-carboxyamide]	210 nM
O=C(Cc1ccc(N2CC3CC2CO3)cc1)N[C@@H]1CCN(c2cncc(C(F)(F)F)c2)C1 (single isomer, unassigned) [Example 165]	30 nM
O=C(Cc1ccc(C2CC2)cc1)N[C@@H]1CCN(c2ncc(Br)s2)C1 [Example 173, (R)—N-(1-(5-bromothiazol-2-yl)pyrrolidin-3-yl)-2-(4-cyclopropylphenyl)acetamide]	1100 nM
O=C(N[C@@H]1CCN(c2cncc(C(F)(F)F)c2)C1)C1CC1c1ccc(Br)cc1 (single isomer, unassigned) [Example 100A]	9.3 nM
C[C@H]1C[C@@H](NC(=O)Cc2ccc(C3CC3)cc2)CN1c1cncc(C(F)(F)F)c1 [Example 9, 2-(4-cyclopropylphenyl)-N-((3R,5S)-5-methyl-1-(5-(trifluoromethyl)pyridin-3-yl)pyrrolidin-3-yl)acetamide]	480 nM
O=C(Cc1cc(F)cc(Cl)c1)N[C@@H]1CCN(c2cncc(C(F)(F)F)c2)C1 [Example 120, (R)-2-(3-chloro-5-fluorophenyl)-N-(1-(5-(trifluoromethyl)pyridin-3-yl)pyrrolidin-3-yl)acetamide]	820 nM
NC(C(=O)N[C@@H]1CCN(c2cncc(C(F)(F)F)c2)C1)c1ccc(C2CC2)cc1 (single isomer, unassigned) [Example 137A]	100 nM
COC(=O)C1(NC(=O)Cc2ccc(C3CC3)cc2)CCN(c2cncc(C(F)(F)F)c2)C1 (stereo not shown) [Example 13, Methyl 3-(2-(4-cyclopropylphenyl)acetamido)-1-(5-(trifluoromethyl)pyridin-3-yl)pyrrolidine-3-carboxylate]	18 nM
O=C(N[C@@H]1CCN(c2nc(C(F)(F)F)cs2)C1)[C@H]1C[C@@H]1c1nc2ccccc2o1 [Example 47, (1S,2S)-2-(benzo[d]oxazol-2-yl)-N—((R)-1-(4-(trifluoromethyl)thiazol-2-yl)pyrrolidin-3-yl)cyclopropane-1-carboxyamide]	350 nM
N#CC1(NC(=O)Cc2ccc(C3CC3)cc2)CCN(c2cncc(C(F)(F)F)c2)C1 (stereo not shown) [Example 36, N-(3-cyano-1-(5-(trifluoromethyl)pyridin-3-yl)pyrrolidin-3-yl)-2-(4-cyclopropylphenyl)acetamide]	980 nM
O=C(Cc1ccc(N2C[C@@H]3CC[C@H]2CO3)cc1)N[C@@H]1CCN(c2cncc(C(F)(F)F)c2)C1 [Example 155, 2-(4-((1S,4S)-2-oxa-5-azabicyclo[2.2.2]octan-5-yl)phenyl)-N—((R)-1-(5-(trifluoromethyl)pyridin-3-yl)pyrrolidin-3-yl)acetamide]	75 nM
COc1cccc(N2CC[C@@H](NC(=O)Cc3ccc(C4CC4)cc3)C2)c1 [Example 175, (R)-2-(4-cyclopropylphenyl)-N-(1-(3-methoxyphenyl)pyrrolidin-3-yl)acetamide]	490 nM

Next, values leading:

IC50	Compound
72 nM	Cn1ccc2ccc(CC(=O)N[C@@H]3CCN(c4ccc(C(F)(F)F)nc4)C3)cc21 [Example 92, (R)-2-(1-methyl-1H-indol-6-yl)-N-(1-(6-(trifluoromethyl)pyridin-3-yl)pyrrolidin-3-yl)acetamide]
1200 nM	CC(C)c1ccc(CC(=O)N[C@H]2CCN(c3cncc(C(F)(F)F)c3)C2)cc1 [Example 114, (S)-2-(4-isopropylphenyl)-N-(1-(5-(trifluoromethyl)pyridin-3-yl)pyrrolidin-3-yl)acetamide]
910 nM	O=C(Cc1ccc(N2CCNCC2)cc1)N[C@@H]1CCN(c2cncc(C(F)(F)F)c2)C1 [Example 94, (R)-2-(4-(piperazin-1-yl)phenyl)-N-(1-(5-(trifluoromethyl)pyridin-3-yl)pyrrolidin-3-yl)acetamide]
220 nM	O=C(Cc1ccc(N2CC3CC2CO3)cc1)N[C@@H]1CCN(c2ccc(C(F)(F)F)nc2)C1 (single isomer, unassigned) [Example 166]
170 nM	Cn1nnc2cc(CC(=O)N[C@@H]3CCN(c4ccc(C(F)(F)F)nc4)C3)ccc21 [Example 168, (R)-2-(1-methyl-1H-benzo[d][1,2,3]triazol-5-yl)-N-(1-(6-(trifluoromethyl)pyridin-3-yl)pyrrolidin-3-yl)acetamide]
3000 nM	O=C(Cc1ccc(C(F)(F)F)cc1)N[C@@H]1CCN(c2ccc(F)c(C(F)(F)F)c2)C1 [Example 184, (R)—N-(1-(4-fluoro-3-(trifluoromethyl)phenyl)pyrrolidin-3-yl)-2-(4-(trifluoromethyl)phenyl)acetamide]
150 nM	C[Si](C)(C)c1ccc(CC(=O)N[C@@H]2CCN(c3cncc(C(F)(F)F)c3)C2)cc1 [Example 26, (R)—N-(1-(5-(trifluoromethyl)pyridin-3-yl)pyrrolidin-3-yl)-2-(4-(trimethylsilyl)phenyl)acetamide]
320 nM	O=C(Cc1ccc(C2CC2)cc1)N[C@@H]1CCN(c2nc(C(F)(F)F)cs2)C1 [Example 16, (R)-2-(4-cyclopropylphenyl)-N-(1-(4-(trifluoromethyl)thiazol-2-yl)pyrrolidin-3-yl)acetamide]
110 nM	O=C(Cc1ccc2cc[nH]c2c1)N[C@@H]1CCN(c2ccc(C(F)(F)F)nc2)C1 [Example 85, (R)-2-(1H-indol-6-yl)-N-(1-(6-(trifluoromethyl)pyridin-3-yl)pyrrolidin-3-yl)acetamide]
280 nM	O=C(Cc1ccc2ncsc2c1)N[C@@H]1CCN(c2cncc(C(F)(F)F)c2)C1 [Example 157, (R)-2-(benzo[d]thiazol-6-yl)-N-(1-(5-(trifluoromethyl)pyridin-3-yl)pyrrolidin-3-yl)acetamide]
550 nM	O=C(Cc1ccc(C2CC2)cc1)N[C@@H]1CCCN(c2cncc(C(F)(F)F)c2)C1 [Example 129, (R)-2-(4-cyclopropylphenyl)-N-(1-(5-(trifluoromethyl)pyridin-3-yl)piperidin-3-yl)acetamide]
2900 nM	O=C(Cc1ccc2[nH]nnc2c1)N[C@@H]1CCN(c2ccc(C(F)(F)F)nc2)C1 [Example 164, (R)-2-(1H-benzo[d][1,2,3]triazol-5-yl)-N-(1-(6-(trifluoromethyl)pyridin-3-yl)pyrrolidin-3-yl)acetamide]
190 nM	O=C(N[C@@H]1CCCN(c2ccc(C(F)(F)F)nc2)C1)C1CC1c1nc2ccccc2[nH]1 (single isomer, unassigned) [Example 63A]
6400 nM	O=C(Cc1ccc2[nH]ncc2c1)N[C@@H]1CCN(c2ccc(C(F)(F)F)nc2)C1 [Example 160, (R)-2-(1H-indazol-5-yl)-N-(1-(6-(trifluoromethyl)pyridin-3-yl)pyrrolidin-3-yl)acetamide]
27 nM	COC(=O)C1(NC(=O)Cc2ccc3cc[nH]c3c2)CCN(c2cncc(C(F)(F)F)c2)C1 (stereo not shown) [Example 37, Methyl 3-(2-(1H-indol-6-yl)acetamido)-1-(5-(trifluoromethyl)pyridin-3-yl)pyrrolidine-3-carboxylate]
